Literature values as cited in patent US20100136119A1, “CONTROLLED-RELEASE PREPARATION CONTAINING CILOSTAZOL AND PROCESS FOR THE PREPARATION THEREOF” (AMOREPACIFIC CORPORATION, priority 2007, published 2010).

For O=C1CCc2cc(OCCCCc3nnnn3C3CCCCC3)ccc2N1 [Cilostazol], the solubility in water is listed as no more than 1 µg/mL.
